Molecules are shown by their SMILES.

This test has as its system Leptin mRNA in terminally differentiated canine adipocytes. Kind of test: Expression of leptin mRNA in canine adipocytes treated with Equol (quantitative PCR). In kind it is cell-based. To be noted: 24 hours, n=3. The procedure:
Treatment: Terminally differentiated canine adipocytes were exposed to 200, 25, and 0 uM Equol for 24 hours. Cells were collected for RNA isolation.
RNA Isolation: Treatment cell samples were vortexed and homogenized using a Quiashredder (Qiagen, Valencia, Calif.) column according to manufacturer's directions. The homogenized lysate was collected and 1 equal volume of 64% ethanol was added to it. This mixture was then applied to an RNAqueous™ filter cartridge, (Ambion Inc., Austin, Tex.) 700 uL at a time, and centrifuged for one minute at 10,000 rpm. The cartridge was washed using 700 uL wash solution #1 and 500 uL wash solution #2/3 with centrifugation at 10,000 rpm for one minute for each wash. The filter cartridge was dried by centrifugation (10,000 rpm) for one minute. […] The resulting RNA was DNAse-treated and quantitated in a Beckman DU 640B spectrophotometer (Beckman Coulter, Inc., Brea, Calif.) at 260 nm. Additionally, quantity and quality were assessed using a bioanalyzer (Agilent, Santa Clara, Calif.) according to manufacturer's directions.
Quantitative PCR: All samples were run singularly against each primer/probe set to determine what standard curve(s) should be used. […] Values were normalized to cyclophilin A (PPIA) levels as determined by quantitative PCR. Inductions were calculated from each of the lowest sample's normalized value. […]

Regarding `Oc1ccc([C@H]2COc3cc(O)ccc3C2)cc1` [Equol], the “Leptin mRNA expression (normalized to cyclophilin A, induction relative to lowest sample)” value runs as follows: (25 uM Equol) 2.58; (200 uM Equol) 1.40.

Values taken from US20140037583A1, “METHODS AND COMPOSITIONS SUITABLE FOR PREVENTING AND TREATING HYPERLEPTINEMIA” (priority 2011, published 2014).
